Data as given in publication PMC7894426, “Influence of verapamil on the pharmacokinetics of rotundic acid in rats and its potential mechanism” (Pharmaceutical Biology, 2021).
Like-named read-outs stand apart in the source and are kept apart here.

Assay: In vivo pharmacokinetic study of oral rotundic acid with or without verapamil pre-treatment
Set-up: species or system Sprague–Dawley rats
Details: rats, RA 10 mg/kg oral; for AUC(0-inf) / CL/F / Cmax / Vd/F / half-life / AUC(0-t) / Tmax: male, Sprague-Dawley, rat, plasma, po, 10 mg/kg; for AUC(0-t): read-out: AUC0–24
Protocol: Male Sprague–Dawley rats (180–220 g) were purchased from SiPeiFu (Beijing) Biotechnology Co., Ltd. (Beijing, China). Rats were housed in a breeding room at stable temperature (22 ± 3 °C), humidity (55 ± 10%), and under non-pathogenic conditions. All animals were placed under the above conditions and acclimatized to the facilities for one week, then fasted for 12 h with water ad libitum before the experiments. The protocols involving experimental animals were carried out by the guidelines of the Animal Ethical Committee of Tianjin Institute of Pharmaceutical Research (Tianjin, China).
To evaluate the influence of verapamil on the in vivo pharmacokinetics of RA, the male Sprague–Dawley rats were randomly divided into three groups (n = 6), including a control group and two pre-treatment groups. The pre-treatment groups received verapamil orally by gavage at a dose of 25 and 50 mg/kg (dissolved in 5% gum arabicin at a concentration of 5 and 10 mg/mL, respectively) separately for 15 min before the administration of RA at a dose of 10 mg/kg (dissolved in 5% gum arabicin at a concentration of 2 mg/mL). The dose of verapamil selected was equated to the human maximum recommended daily dose of 240–480 mg for a 60 kg person following allometric conversion (US Food and Drug Administration [2005]; Cao et al. [2007]). The control group received equal amounts of the vehicle (5% gum arabicin) before the oral administration of RA. Whole blood samples (200 µL) were collected from the orbital venous plexus at 0.0833, 0.25, 0.5, 1, 1.5, 2, 3, 4, 6, 8, 10 and 24 h after oral administration. All samples were transferred into heparinized tubes and then centrifuged for 5 min at 12,000 rpm and 4 °C immediately. The supernatants of separated plasma samples were harvested and stored at −20 °C until LC-MS/MS analysis.
RA was extracted from the sample using a simple protein precipitation method with a 3-fold volume of an organic solvent consisting of methanol-acetonitrile (1:2, v/v). Briefly, a 50 µL aliquot of plasma sample was thawed at room temperature and was then precipitated by 50 µL of methanol and 100 µL of acetonitrile containing IS (10 ng/mL). The sample was mixed uniformly for 1 min, and then centrifuged for 10 min at 12,000 rpm and 4 °C. Subsequently, 10 µL supernatants were injected into the LC-MS/MS system for analysis.
The separation and mass spectrometric analysis of the RA was achieved on a Waters ACQUITY^TM Ultra Performance LC system coupled with a Tandem Quadrupole (TQ) Detector equipped with an electrospray ionization (ESI) source. Chromatographic separation was performed at 40 °C with an ACQUITYUPLC BEH C8 column (1.7 µm, 2.1 × 50 mm, Waters Corp., USA). The mobile phase consisted of methanol-acetonitrile (50:50, v/v, mobile phase A), and 5 mM ammonium formate-methanol (90:10, v/v, mobile phase B). While the gradient elution procedure was employed for the separation of analytes at a flow rate of 0.3 mL/min. The optimized gradient elution program was as follows: 0 min 60% B, 3 min 10% B, 4 min 10% B, and 5 min 60% B. The injection volume was 10 µL at an autosampler temperature of 6 °C. The analytical run time for each sample was 5.0 min. The HPLC elution was injected into waste for the first 1.2 min, into the MS detector for the next 1 min, and back into waste for the remaining run time. RA and IS were monitored with the mass spectrometer by negative ESI source mode. The ionization source parameters were set as follows: 2.5 kV, 30 V, 120 °C, 350 °C, 50 L/h, and 650 L/h for capillary voltage, cone voltage, source temperature, desolvation temperature, cone gas, and desolvation gas, respectively. The optimal collision energy was operated at 30 V for RA and 20 V for IS. Argon was used as the collision gas. Samples were analyzed by multiple reaction monitoring (MRM) of the transitions of m/z 487.3 → 469.3 for RA and m/z 256.0 → 227.0 for IS, respectively. The dwell time was set at 0.2 s per transition. Data were acquired by MassLynx 4.1 software. […]

[1] = pre-treatment of verapamil 25 mg/kg
[2] = pre-treatment of verapamil 50 mg/kg

Structure (SMILES): C[C@@H]1CC[C@]2(C(=O)O)CC[C@]3(C)C(=CC[C@@H]4[C@@]5(C)CC[C@H](O)[C@@](C)(CO)[C@@H]5CC[C@]43C)[C@@H]2[C@]1(C)O [RA, Rotundic acid]
- AUC(0-inf) (control (vehicle)): 432 ± 64.2 ng·h/mL
- CL/F (control (vehicle)): 393 mL/min/kg
- Cmax (control (vehicle)): 108 ± 10.5 ng/mL
- Vd/F (control (vehicle)): 64.6 ± 22.6 L/kg
- half-life (control (vehicle)): ~2 h
- AUC(0-t) (control (vehicle)): 405 ± 68.2 ng·h/mL
- Tmax (control (vehicle), read-out: Tmax): 0.292 ± 0.228 h
- AUC(0-inf) [1]: 539 ± 53.6 ng·h/mL
- CL/F [1]: 312 mL/min/kg
- Cmax [1]: 117 ± 14.9 ng/mL
- Vd/F [1]: 66.7 ± 21.1 L/kg
- half-life [1]: 2.44 ± 0.572 h
- AUC(0-t) [1]: 496 ± 63 ng·h/mL
- Tmax (pre-treatment of verapamil 25 mg/kg, read-out: Tmax): 0.625 ± 0.306 h
- AUC(0-inf) [2]: 836 ± 116 ng·h/mL
- CL/F [2]: 203 mL/min/kg
- Cmax [2]: 219 ± 36.8 ng/mL
- Vd/F [2]: 41.3 ± 12.3 L/kg
- half-life [2]: 2.31 ± 0.404 h
- AUC(0-t) [2]: 782 ± 115 ng·h/mL
- Tmax (pre-treatment of verapamil 50 mg/kg, read-out: Tmax): 1.17 ± 0.516 h
- Tmax (without verapamil, read-out: time to peak plasma concentration (converted)): ~0.25 h
- t1/2 (control (vehicle)): 1.85 ± 0.390 h
